We go through one molecule from patent US6599883B1, “Nasal delivery of xylitol” (Nastech Pharmaceutical Company, Inc., priority 1998, dated 2003).

Data set [1] is classed as physicochemical. As for the experimental part: A composition is prepared for a dilute bathing formulation of xylitol for nasal delivery. The concentration of xylitol in the solution may be 10%-60% by weight/volume. This corresponds to 10-60 grams of xylitol per 100 ml of solution. xylitol is soluble in solution up to 64.2 grams per 100 ml of solution.
For data set [2], the system named is Streptococcus pneumonia. The following applies: during its logarithmic growth phase; cited from earlier work.

As for `OC[C@@H](O)[C@H](O)[C@@H](O)CO` [xylitol], the soluble in solution result in data set [1] is “up to 64.2 grams per 100 ml of solution”. Besides, the “growth of Streptococcus pneumonia in vitro” value in data set [2] was “inhibits the growth”.
